Results taken from patent US20240239821A1, “N-ACYL FOSMIDOMYCIN PRODRUG ANALOGS AS NOVEL ANTIINFECTIVE AGENTS” (THE GEORGE WASHINGTON UNIVERSITY, priority 2021, published 2024).
Like-named read-outs stand apart in the source and are kept apart here.

Key:
P falciparum strain 3D7 = assay: microbe, parasite or virus in culture; format: cell-based, Plasmodium falciparum
Method: P falciparum strain 3D7 (wild-type, WT) was obtained through MR4 as part of the BEi Resources Repository, NIAID, NIH (www.mr4.org). AP falciparum strain containing increased levels of MEP pathway metabolites, had]
(MRA-1257), and its isogenic compliment, had]+ Pfl-Iadl-GFP (MRA-1258), were generated in strain 3D7, as reported (Guggisberg et al.). Parasites were cultured in a 2% suspension of human erythrocytes and RPMI 1640 (Sigma) medium supplemented with 27 mM sodium bicarbonate, 11 mM glucose, 5 mM HEPES, I mM sodium pyruvate, 0.37 mM hypoxanthine, 0.01 mM thymidine, 10 μg/mL gentamicin, and 0.5% Albumax (Gibco) at 37° C., 5% 02/5% CO2/90% N2 atmosphere.

P. falciparum DXR [1] = target: T1, P. falciparum DXR (Plasmodium falciparum, UniProt Q8IKG4); details: background statement; cited from earlier work
T1 construct: His6 (N); made in house; host or cells: Escherichia coli Rosetta2(DE3)
T1 sequence (Q8IKG4 73-488): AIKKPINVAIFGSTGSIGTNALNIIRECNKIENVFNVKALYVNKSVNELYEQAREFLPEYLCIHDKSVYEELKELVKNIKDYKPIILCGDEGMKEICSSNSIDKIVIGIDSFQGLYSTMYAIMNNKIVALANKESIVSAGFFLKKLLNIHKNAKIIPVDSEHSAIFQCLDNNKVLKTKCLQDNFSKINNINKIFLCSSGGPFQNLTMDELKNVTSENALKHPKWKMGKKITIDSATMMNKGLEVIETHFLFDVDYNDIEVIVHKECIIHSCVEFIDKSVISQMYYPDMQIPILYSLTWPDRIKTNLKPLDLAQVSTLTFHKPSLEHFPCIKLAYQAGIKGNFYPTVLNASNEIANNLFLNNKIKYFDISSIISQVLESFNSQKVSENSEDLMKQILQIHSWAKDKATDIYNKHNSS

P. falciparum DXR [2] = target: T1, P. falciparum DXR; assay: Plasmodium falciparum DXR enzyme IC50; format: biochemical
Method: Recombinant protein was expressed in Escherichia coli Rosetta2(DE3) cells obtained from Novagen (San Diego, CA). E. coli was cultured at 37° C. in Luria-Bertani (LB) media supplemented with 100 μg/mL ampicillin and 34 μg/ml chloramphenicol with constant shaking at 250 rpm. Agar (1.5% wt/vol) was added to prepare solid media.
Cloning. Expression, and Purification of P falciparum DXR
The P falciparum dxr gene was truncated to begin at Lys 75 to remove the apicoplast signaling sequence. A Pf 3D7 trophozoite cDNA library (MRA-297) was acquired from BEi resources and used as the template for amplification of the PIDXR gene. […] 3′ reverse and cloned into a pETl 00/D-TOPO vector to yield pPIDXR, facilitating the expression of an N-terminal His6-tagged protein.
The expression plasmid (pPIDXR) was separately transformed into chemically competent E. coli Rosetta2(DE3) cells for protein expression. To express the His-tagged protein, a 10 mL overnight seed culture was added to IL of LB media and then incubated with shaking at 37° C. and 250 rpm. At an OD600 of 1.8, protein expression was induced with addition of isopropyl b-D-thiogalactopyranoside (IPTG) to 0.5 mM and the culture was further incubated with shaking at 37° C. and 250 rpm for an additional 18 hours. Cells were harvested via centrifugation (4648×g, 20 min, 4° C.) and stored at −80° C. Protein was subsequently isolated and purified from the cells via chemical lysis and affinity chromatography.
Cells were lysed with lysis buffer A (100 mM Tris pH 8.0, 0.032% lysozyme, 3 mL per gram cell pellet), followed by lysis buffer B (0.1 M CaCh, 0.1 M MgCh, 0.1 M NaCl, 0.020% DNase, 0.3 mL per gram cell pellet).
The column was washed with 20 column volumes of Ix equilibrium buffer (50 mM HEPES pH 7.5, 300 mM NaCl), 10 column volumes of Ix wash buffer (50 mM HEPES pH 7.5, 300 mM NaCl, 10 mM imidazole), and 15 column volumes of 2× wash buffer (100 mM HEPES pH 7.5, 600 mM NaCl, 20 mM imidazole). The protein was eluted with 5 column volumes of Ix elution buffer (150 mM imidazole pH 7.0, 300 mM NaCl). Buffer was exchanged with 0.1 M Tris pH 7.5, I mM NaCl, 5 mM DTT during concentration by ultrafiltration. Protein concentration was determined using Advanced Protein Assay Reagent (Cytoskeleton, Denver CO) with y-globulins (Sigma-Aldrich) as the standard. Purified protein was visualized via Coomassie stained SDS-PAGE.

[3] = whole cell, read-out: P. f. IC50
[4] = recombinant His-tagged enzyme, read-out: P. f. DXR IC50
[5] = Plasmodium falciparum, 3D7, read-out: P. f. IC50

Structure (SMILES) | IC50 (P falciparum strain 3D7; [3]) | IC50 (P. falciparum DXR [2]; [4]) | also measured
CC(=O)N(O)C/C=C/P(=O)(OCOC(=O)c1ccccc1)OCOC(=O)c1ccccc1 [BOM, CH3] | 11 nM |  | 
O=CN(O)C/C=C/P(=O)(OCOC(=O)c1ccccc1)OCOC(=O)c1ccccc1 [BOM, H] | 42 nM |  | 
O=C(OCOP(=O)(/C=C/CN(O)C(=O)c1ccccc1)OCOC(=O)c1ccccc1)c1ccccc1 [BOM, phenyl, [({[(E)-benzoyloxy]methoxy}[(1E)-3-(N-hydroxy-1-phenylformamido)prop-1-en-1-yl]phosphoryl)oxy]methyl benzoate] | 297 nM |  | 
CC(=O)N(O)CCCP(=O)(O)O [FR900098] |  |  | IC50 (P. falciparum DXR [1]): 24 nM
O=C(c1ccc(Cl)c(Cl)c1)N(O)C/C=C/P(=O)(O)O [NH4,3,4-dichlorophenyl] | 129 nM |  | 
O=C(c1cc(Cl)cc(Cl)c1)N(O)C/C=C/P(=O)(O)O [NH4,3,5-dichlorophenyl] | 218 nM |  | 
O=C(c1cccc(Cl)c1)N(O)C/C=C/P(=O)(O)O [NH4,3-chlorophenyl] | 116 nM |  | 
O=C(c1cccc(F)c1)N(O)C/C=C/P(=O)(O)O [NH4,3-fluorophenyl] | 352 nM |  | 
O=C(c1cccc(C(F)(F)F)c1)N(O)C/C=C/P(=O)(O)O [NH4,3-trifluoromethylphenyl] |  | 49 nM | 
O=C(c1ccc(F)cc1)N(O)C/C=C/P(=O)(O)O [NH4,4-fluorophenyl] | 173 nM | 38 nM | 
COc1ccc(C(=O)N(O)C/C=C/P(=O)(O)O)cc1 [NH4,4-methoxyphenyl] | 632 nM |  | 
O=C(c1ccncc1)N(O)C/C=C/P(=O)(O)O [NH4,4-pyridinyl] | 5390 nM |  | 
O=C(c1ccccc1)N(O)C/C=C/P(=O)(O)O [NH4, phenyl, Diammonium [(1E)-3-(N-hydroxy-1-phenylformamido)prop-1-en-1-yl]phosphonate] |  |  | IC50 (P. falciparum DXR [2]): 81 nM; IC50 (P falciparum strain 3D7; [5]): 273 nM
O=C(c1cccc2ccccc12)N(O)C/C=C/P(=O)(O)O [Na/H, 1-naphthyl] | 5480 nM | 1800 nM | 
O=C(c1ccc2ccccc2c1)N(O)C/C=C/P(=O)(O)O [Na/H, 2-naphthyl] | 1620 nM | 471 nM | 
O=C(c1cc(Cl)cc(Cl)c1)N(O)C/C=C/P(=O)(O)O [Na/H, 3,5-dichlorophenyl, Sodium hydrogen [(1E)-3-[1-(3,5-dichlorophenyl)—N-hydroxyformamido]prop-1-en-1-yl]phosphonate] |  |  | IC50 (P. falciparum DXR [2]): 64 nM; IC50 (P falciparum strain 3D7; [5]): 170 nM
O=C(c1cccc(Cl)c1)N(O)C/C=C/P(=O)(O)O [Na/H, 3-chlorophenyl] | 279 nM | 158 nM | 
O=C(c1cccc(C(F)(F)F)c1)N(O)C/C=C/P(=O)(O)O [Na/H, 3-trifluoromethylphenyl] | 188 nM | 48 nM | 
O=C(c1ccc(-c2ccccc2)cc1)N(O)C/C=C/P(=O)(O)O [Na/H, 4-biphenyl] | 4380 nM | 290 nM | 
O=C(c1ccc(F)cc1)N(O)C/C=C/P(=O)(O)O [Na/H, 4-fluorophenyl] | 121 nM | 41 nM | 
Cc1ccc(C(=O)N(O)C/C=C/P(=O)(O)O)cc1 [Na/H, 4-methylphenyl] | 1390 nM | 164 nM | 
O=C(c1ccncc1)N(O)C/C=C/P(=O)(O)O [Na/H, 4-pyridinyl] | 6520 nM | 519 nM | 
CC(C)(C)c1ccc(C(=O)N(O)C/C=C/P(=O)(O)O)cc1 [Na/H, 4-t-butylphenyl] | 43700 nM | 37900 nM | 
O=C(c1ccc(C(F)(F)F)cc1)N(O)C/C=C/P(=O)(O)O [Na/H, 4-trifluoromethylphenyl] | 2500 nM | 146 nM | 
CC(=O)N(O)C/C=C/P(=O)(OCOC(=O)C(C)(C)C)OCOC(=O)C(C)(C)C [POM, CH3] | 18 nM |  | 
CC(C)(C)C(=O)OCOP(=O)(/C=C/CN(O)C=O)OCOC(=O)C(C)(C)C [POM, H] | 13 nM |  | 
CC(C)(C)C(=O)OCOP(=O)(C/C=C/N(O)C(=O)c1ccccc1)OCOC(=O)C(C)(C)C [POM, phenyl, (E)-(((3-(N-hydroxybenzamido)allyl)phosphoryl)bis(oxy))bis(methylene)bis(2,2-dimethylpropanoate)] | 200 nM |  | 
